For orientation: EC50 means the midpoint of the concentration-response curve. Low readings indicate higher potency in that assay, high ones lower potency in that assay. Usually IC50 stands for the concentration needed to halve the response being measured.

Series [1] concerns mouse primary microglial cells. The series can be described thus: LDH release assay in primary microglial cells. It counts as cell-based. The note with it: 1 μM pretreatment 1 h, then LPS 0.1 μg/mL 24 h. The procedure: (§1) Primary microglial cell cultures were derived from the cortices of 1–2-day-old mouse pups (1pup/1 brain/1 flask). After decapitation, the brains were extracted and immediately placed in cold Hanks’ Balanced Salt Solution (HBSS, Gibco, New York, NY, USA) on ice. The brains were washed at least three times with 7 mL of HBSS and then transferred to 10 mL of fresh culture media consisting of Dulbecco’s Modified Eagle Medium (DMEM) with GlutaMax and high glucose (4.5 g/L) (Gibco, New York, NY, USA) on ice. The tissue was minced and incubated in HBSS containing glucose, bovine serum albumin (BSA; Sigma-Aldrich, St. Louis, MO, USA), and HEPES (Gibco, New York, NY, USA) with 0.025% trypsin at 37 °C for 20 min. The trypsinization was halted by adding DMEM with GlutaMax and high glucose (4.5 g/L) supplemented with 10% heat-inactivated fetal bovine serum (FBS, Gibco, New York, NY, USA). […] The purity of microglial cell cultures was assessed as we have shown previously. […]
LDH release was measured as previously described by as an estimation of cell damage 24 h after LPS treatment. […] Absorbance was measured at 540 nm using an Infinite M200PRO microplate reader (TECAN, Männedorf, Switzerland). The results were normalized to the LDH activity released from vehicle-treated cells (considered as 100%) and expressed as a percentage of the control ± SD.
(In general: LDH leaks from cells whose membrane has failed.)

Series [2] concerns the target T1, FPR2 (Homo sapiens, UniProt P25090).
T1 sequence (P25090 1-351): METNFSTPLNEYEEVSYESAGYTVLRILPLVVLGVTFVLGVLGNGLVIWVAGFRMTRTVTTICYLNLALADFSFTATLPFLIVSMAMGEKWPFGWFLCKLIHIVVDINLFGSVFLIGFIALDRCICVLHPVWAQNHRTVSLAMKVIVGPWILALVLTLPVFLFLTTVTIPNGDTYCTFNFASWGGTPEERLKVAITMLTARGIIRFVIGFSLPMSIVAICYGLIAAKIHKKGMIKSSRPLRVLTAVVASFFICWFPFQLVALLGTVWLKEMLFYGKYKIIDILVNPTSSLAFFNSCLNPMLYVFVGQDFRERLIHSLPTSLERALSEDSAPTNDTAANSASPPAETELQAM
The series can be described thus: Ca2+ mobilization (agonist activity) in FPR2-HL60 cells. As to conditions: for Ca2+ Mobilization HL60-FPR2 Efficacy: response to 5 nM WKYMVM = 100%. A general note: Calcium assays in cells follow changes in intracellular calcium, usually with a dye or a luminescent sensor.

Series [3] concerns IL-10. The series can be described thus: IL-10 ELISA in medium of microglial cultures. The format is cell-based, mouse. The note with it: 1 μM pretreatment 1 h, then LPS 0.1 μg/mL 24 h. The protocol: as §1, with “min.” for “min. The trypsinization was halted by adding DMEM with GlutaMax and high glucose (4.5 g/L) supplemented with 10% heat-inactivated fetal bovine serum (FBS, Gibco, New York, NY, USA).”
(§2) To assess the effect of test compounds on IL-18, IL-6, and IL-10 levels, the medium of microglial cell cultures was collected 24 h after LPS treatment. The protein levels of the cytokines IL-18 (Mouse interleukin 18 ELISA kit), IL-6 (Mouse interleukin 6 ELISA kit), and IL-10 (Mouse interleukin 10 ELISA kit; all obtained from FineTest, Wuhan, China) were measured using commercially available enzyme-linked immunosorbent assay kits according to the manufacturer’s instructions. […]
In general terms: In an ELISA, binding on a coated surface is turned into a signal by an enzyme label.

The target in series [4] is T1, FPR2. The series can be described thus: cell-based.
The subject of series [5] is mouse primary microglial cells. Kind of series: NO release assay (Griess) in primary microglial cells. The format is cell-based. As to conditions: for LPS-induced NO production: 1 μM pretreatment 1 h, then LPS 0.1 μg/mL 24 h; for NO levels under basal conditions: 1 μM, no LPS. The procedure: Primary microglial cell cultures were derived from the cortices of 1–2-day-old mouse pups (1pup/1 brain/1 flask). After decapitation, the brains were extracted and immediately placed in cold Hanks’ Balanced Salt Solution (HBSS, Gibco, New York, NY, USA) on ice. The brains were washed at least three times with 7 mL of HBSS and then transferred to 10 mL of fresh culture media consisting of Dulbecco’s Modified Eagle Medium (DMEM) with GlutaMax and high glucose (4.5 g/L) (Gibco, New York, NY, USA) on ice. The tissue was minced and incubated in HBSS containing glucose, bovine serum albumin (BSA; Sigma-Aldrich, St. Louis, MO, USA), and HEPES (Gibco, New York, NY, USA) with 0.025% trypsin at 37 °C for 20 min. The trypsinization was halted by adding DMEM with GlutaMax and high glucose (4.5 g/L) supplemented with 10% heat-inactivated fetal bovine serum (FBS, Gibco, New York, NY, USA). The tissue was then gently triturated to obtain a single-cell suspension. Cells were plated at a density of 3 × 10^5 cells/cm^2 in culture medium composed of DMEM with GlutaMax and high glucose (4.5 g/L), supplemented with 10% heat-inactivated FBS, 100 U/mL penicillin, and 0.1 mg/mL streptomycin (all from Gibco, New York, NY, USA), in poly-L-lysine-coated 75 cm^2 culture flasks. On the ninth day in vitro (maintained at 37 °C, 5% CO2), the flasks were agitated on a horizontal shaker for 1 h at 37 °C and 80 rpm. Following centrifugation, the cells were resuspended in culture medium and seeded at final densities of 1.25 × 10^6 cells/well in 6-well plates, 2 × 10^5 cells/well in 24-well plates, or 4 × 10^4 cells/well in 96-well plates. The purity of microglial cell cultures was assessed as we have shown previously.
Microglia cell cultures were pretreated with the FPR2 agonists 8b (1 µM) or 7b (1 µM) for 1 h and then stimulated with lipopolysaccharide (LPS; 0.1 μg/mL; Escherichia coli 0111:B4; Sigma-Aldrich, St. Louis, MO, USA) for 24 h. The concentration of 1 μM was chosen based on our preliminary data (Supplementary File). Control cultures were treated with the appropriate vehicle. […]
NO (nitrite ion in solution) production from LPS-treated microglial cells was measured using the Griess reaction, as previously described by. After 24 h of treatment, equal volumes of cell culture medium and Griess reagents (Griess A: 0.1% N-1-naphthylethylenediamine dihydrochloride and Griess B: 1% sulfanilamide in 5% phosphoric acid) were combined in a 96-well plate and the absorbance was read at 540 nm using an Infinite M200PRO microplate reader (TECAN, Männedorf, Switzerland). The results were normalized to the NO levels released by vehicle-treated cells (set at 100%) and expressed as a percentage of the control ± SD.

Series [6] has as its system IL-6. The series can be described thus: IL-6 ELISA in medium of microglial cultures. The format is cell-based, mouse. As to conditions: 1 μM pretreatment 1 h, then LPS 0.1 μg/mL 24 h. The procedure: as §1, with “min.” for “min. The trypsinization was halted by adding DMEM with GlutaMax and high glucose (4.5 g/L) supplemented with 10% heat-inactivated fetal bovine serum (FBS, Gibco, New York, NY, USA).”
as §2

The target of series [7] is T1, FPR2. Kind of series: FPR2 desensitization: inhibition of WKYMVM-induced Ca2+ mobilization in FPR2-HL60 cells. The format is cell-based. The arrangement: expressed in transfected cells; host or cells: HL-60 cells. The note with it: 10 min preincubation, then 5 nM WKYMVM. An excerpt:
Finally, we assessed the ability of compounds to induce receptor desensitization at FPR2 by measuring the inhibition of Ca^2+ mobilization induced by subsequent treatment with a standard FPR2 agonist (IC50, Table 1) because FPR2 undergoes homologous desensitization after stimulation with agonists, resulting in functional antagonism (IC50, Table 1). […] We also evaluated the effects of the thiourea and thioamide derivatives on Ca^2+ mobilization in FPR1-HL60-transfected cells after stimulation with the FPR1 agonist (IC50, Table 1).

Regarding `N#Cc1ccc(C[C@H](NC(=O)Nc2ccc(F)cc2)C(=S)N2CCc3ccccc32)cc1` [7b, (S)-1-[3-(4-Cyanophenyl)-1-(indolin-1-yl)-1-thioxopropan-2-yl]-3-(4-fluorophenyl)urea], the “LPS-induced cytotoxicity (LDH release)” value in series [1] is recorded as “effectively mitigated”. Also, in series [2] (ratio of FPR2 EC50 vs 3b, 3c or 4b), the “fold less potent at FPR2 than the corresponding urea/amide” value worked out at 23 fold. For the same compound, in series [2], the “Ca2+ Mobilization HL60-FPR2 Efficacy” value is recorded as 170%. In addition, the “LPS-induced increase of IL-10 level” value in series [3] is reported as “able to counterbalance the LPS-induced increase”. In series [4], this compound displayed a 50% effective concentration (EC50) of 600 ± 200 nM. In series [5], the “LPS-induced NO production” value is “effectively attenuated” and the “NO levels under basal conditions” value was “neither compound increased NO levels”. Moreover, in series [6], the “LPS-induced increase of IL-6 level” value is “able to counterbalance the LPS-induced increase”. In series [7], the “Ca2+ Mobilization HL60-FPR2 IC50 (FPR2 desensitization)” value was “submicromolar concentration” and the IC50 stood at 60 ± 20 nM.
As for `N#Cc1ccc(C[C@H](NC(=O)Nc2ccc(Br)cc2)C(=S)N2CCc3ccccc32)cc1` [8b, (S)-1-(4-Bromophenyl)-3-[3-(4-cyanophenyl)-1-(indolin-1-yl)-1-thioxopropan-2-yl]urea], in series [1], the “LPS-induced cytotoxicity (LDH release)” value was “effectively mitigated”. Further, the “Ca2+ Mobilization HL60-FPR2 Efficacy” value in series [2] is given as 150%. Besides, the “LPS-induced increase of IL-10 level” value in series [3] was “able to counterbalance the LPS-induced increase”. This compound gave an EC50 in series [4] of 40 ± 20 nM. Besides, in series [5], the “LPS-induced NO production” value is reported as “effectively attenuated” and the “NO levels under basal conditions” value is given as “neither compound increased NO levels”. The “LPS-induced increase of IL-6 level” value in series [6] is “able to counterbalance the LPS-induced increase”. In series [7], the “Ca2+ Mobilization HL60-FPR2 IC50 (FPR2 desensitization)” value is recorded as “submicromolar concentration” and the 50% inhibitory concentration (IC50) stood at 7 ± 3 nM.

The values are drawn from PMC12291851, “Hydrogen Sulfide (H2S)-Donating Formyl Peptide Receptor 2 (FPR2) Agonists: Design, Synthesis, and Biological Evaluation in Primary Mouse Microglia Culture” (Antioxidants, 2025).
